# Active and inactive are the calls of the source. No cut-off for these calls is given here.
# Legend:
# [1] = biological target: T1, Mannose-6-phosphate isomerase (Saccharomyces cerevisiae, UniProt P29952); assay: Inhibition of Saccharomyces cerevisiae type I phosphomannose isomerase assessed as D-mannose 6-phosphate to D-fructose 6-phosphate isomerization at pH 7.1 by PGI/G6PDH coupled enzyme spectrophotometric assay
# T1 sequence (P29952 whole entry): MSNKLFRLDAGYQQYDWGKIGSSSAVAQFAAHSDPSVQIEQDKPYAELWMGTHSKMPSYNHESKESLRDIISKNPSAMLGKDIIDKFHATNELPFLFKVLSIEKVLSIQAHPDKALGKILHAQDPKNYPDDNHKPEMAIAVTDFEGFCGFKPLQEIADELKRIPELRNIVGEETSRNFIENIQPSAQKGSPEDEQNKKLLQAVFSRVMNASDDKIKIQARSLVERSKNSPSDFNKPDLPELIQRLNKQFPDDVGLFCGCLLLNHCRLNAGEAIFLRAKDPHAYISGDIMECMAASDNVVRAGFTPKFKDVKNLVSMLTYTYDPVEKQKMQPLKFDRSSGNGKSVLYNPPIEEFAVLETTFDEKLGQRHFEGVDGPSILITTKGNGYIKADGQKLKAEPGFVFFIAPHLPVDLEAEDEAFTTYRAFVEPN
# [2] = biological target: T2, Mannose-6-phosphate isomerase (Escherichia coli (strain K12), UniProt P00946); assay: Inhibition of Escherichia coli type I phosphomannose isomerase assessed as D-mannose 6-phosphate to D-fructose 6-phosphate isomerization at pH 7.1 by PGI/G6PDH coupled enzyme spectrophotometric assay
# T2 sequence (P00946 whole entry): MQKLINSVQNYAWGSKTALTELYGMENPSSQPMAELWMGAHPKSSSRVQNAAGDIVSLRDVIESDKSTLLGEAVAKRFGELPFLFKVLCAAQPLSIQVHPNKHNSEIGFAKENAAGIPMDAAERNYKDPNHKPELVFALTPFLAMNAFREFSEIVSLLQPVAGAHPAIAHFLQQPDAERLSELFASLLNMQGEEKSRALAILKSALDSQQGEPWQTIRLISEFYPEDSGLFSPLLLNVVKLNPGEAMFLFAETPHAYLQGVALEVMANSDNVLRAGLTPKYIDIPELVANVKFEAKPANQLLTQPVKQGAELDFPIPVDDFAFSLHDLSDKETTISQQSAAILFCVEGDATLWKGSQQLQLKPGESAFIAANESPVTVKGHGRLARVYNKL
# [3] = biological target: T3, Mannose-6-phosphate isomerase (Escherichia coli (strain K12)) (UniProt P00946); assay: Competitive inhibition of Escherichia coli type I phosphomannose isomerase assessed as D-mannose 6-phosphate to D-fructose 6-phosphate isomerization at pH 7.1 by PGI/G6PDH coupled enzyme spectrophotometric assay
# T3 sequence (whole entry): T2 sequence (P00946 whole entry)
# [4] = biological target: T4, Mannose-6-phosphate isomerase (Saccharomyces cerevisiae) (UniProt P29952); assay: Competitive inhibition of Saccharomyces cerevisiae type I phosphomannose isomerase assessed as D-mannose 6-phosphate to D-fructose 6-phosphate isomerization at pH 7.1 by PGI/G6PDH coupled enzyme spectrophotometric assay
# T4 sequence (whole entry): T1 sequence (P29952 whole entry)
Compound,IC50 [1],IC50 [2],Ki [1],inhibition [3],inhibition [4],Ki [2]
O=C(O)C(C[C@H]1OC(O)[C@@H](O)[C@@H](O)[C@@H]1O)C(=O)O (some centres not stated),18.1 µM,199 µM,10.5 µM,Active,Active,115 µM
O=C(O)[C@@H](O)[C@H](O)[C@H](O)CP(=O)(O)O,–,> 3000 µM,–,–,–,–
O=C(NO)[C@@H](O)[C@H](O)[C@H](O)CCP(=O)(O)O.ONO.ONO.ONO,2200 µM,370 µM,–,–,–,–

# Next, values leading:
IC50 [1],IC50 [2],Ki [1],inhibition [3],inhibition [4],Ki [2],Compound
900 µM,4600 µM,–,–,–,–,O=C(O)CC[C@H]1OC(O)[C@@H](O)[C@@H](O)[C@@H]1O (some centres not stated)
–,> 3000 µM,–,–,–,–,NNC(=O)[C@@H](O)[C@H](O)[C@H](O)CCP(=O)(O)O

# Reference: ChEMBL document CHEMBL1152637, “Synthesis and evaluation of non-hydrolyzable D-mannose 6-phosphate surrogates reveal 6-deoxy-6-dicarboxymethyl-D-mannose as a new strong inhibitor of phosphomannose isomerases” (Bioorg Med Chem, 2009)
